Experimental data: ChEMBL document CHEMBL1140121, “X-ray crystal structure of human heme oxygenase-1 in complex with 1-(adamantan-1-yl)-2-(1H-imidazol-1-yl)ethanone: a common binding mode for imidazole-based heme oxygenase-1 inhibitors” (J Med Chem, 2008)

How the values were obtained:
[1] = target: T1, Heme oxygenase 1 (Homo sapiens) (UniProt P09601); assay: Inhibition of human recombinant HO1 expressed in Escherichia coli DH5alpha assessed as heme degradation at 25 uM by spectrophotometry in presence of L-ascorbic acid relative to control; set-up: scale not given: the % may be the effect or the level left
T1 sequence (whole entry): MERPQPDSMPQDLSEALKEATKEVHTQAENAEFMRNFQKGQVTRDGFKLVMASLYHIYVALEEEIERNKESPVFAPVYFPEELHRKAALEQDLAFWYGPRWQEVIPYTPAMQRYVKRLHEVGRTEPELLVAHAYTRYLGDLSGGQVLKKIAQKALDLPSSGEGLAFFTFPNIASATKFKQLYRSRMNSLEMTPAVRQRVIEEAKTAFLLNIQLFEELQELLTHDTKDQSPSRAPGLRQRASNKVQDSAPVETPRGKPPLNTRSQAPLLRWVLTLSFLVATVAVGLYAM

[2] = target: T1, Heme oxygenase 1 (Homo sapiens); assay: Inhibition of human recombinant HO1 expressed in Escherichia coli DH5alpha assessed as heme degradation at 10 uM by spectrophotometry in presence of L-ascorbic acid relative to control
[3] = target: T1, Heme oxygenase 1 (Homo sapiens); assay: Residual activity of human recombinant HO1 expressed in Escherichia coli DH5alpha assessed as remaining heme at 25 uM by spectrophotometry in absence of L-ascorbic acid relative to control
[4] = target: T1, Heme oxygenase 1 (Homo sapiens); assay: Residual activity of human recombinant HO1 expressed in Escherichia coli DH5alpha assessed as remaining heme at 50 uM by spectrophotometry in absence of L-ascorbic acid relative to control

Structure (SMILES) | Activity [1] [%] | inhibition [2] [%] | residual activity [3] [%] | residual activity [4] [%]
Clc1ccc(CCC2(Cn3ccnc3)OCCO2)cc1 | 15 | 39 | 65 | 80
O=C(Cn1ccnc1)C12CC3CC(CC(C3)C1)C2 | – | – | 44 | 54
